Assays:
[1] = target: Casein kinase I isoform epsilon (Homo sapiens, UniProt P49674); test: biochemical; assay type: cell-based, Sf9
[2] = target: Cyclin-dependent kinase 5/CDK5 activator 1 (Homo sapiens, UniProt Q00535); test: biochemical; assay type: cell-based, Sf9
[3] = in vitro; conditions: mouse, ht-22
[4] = target: T1, Dual specificity tyrosine-phosphorylation-regulated kinase 3 (Homo sapiens, UniProt O43781); test: biochemical; assay type: cell-based, Sf9
T1 sequence (O43781 whole entry): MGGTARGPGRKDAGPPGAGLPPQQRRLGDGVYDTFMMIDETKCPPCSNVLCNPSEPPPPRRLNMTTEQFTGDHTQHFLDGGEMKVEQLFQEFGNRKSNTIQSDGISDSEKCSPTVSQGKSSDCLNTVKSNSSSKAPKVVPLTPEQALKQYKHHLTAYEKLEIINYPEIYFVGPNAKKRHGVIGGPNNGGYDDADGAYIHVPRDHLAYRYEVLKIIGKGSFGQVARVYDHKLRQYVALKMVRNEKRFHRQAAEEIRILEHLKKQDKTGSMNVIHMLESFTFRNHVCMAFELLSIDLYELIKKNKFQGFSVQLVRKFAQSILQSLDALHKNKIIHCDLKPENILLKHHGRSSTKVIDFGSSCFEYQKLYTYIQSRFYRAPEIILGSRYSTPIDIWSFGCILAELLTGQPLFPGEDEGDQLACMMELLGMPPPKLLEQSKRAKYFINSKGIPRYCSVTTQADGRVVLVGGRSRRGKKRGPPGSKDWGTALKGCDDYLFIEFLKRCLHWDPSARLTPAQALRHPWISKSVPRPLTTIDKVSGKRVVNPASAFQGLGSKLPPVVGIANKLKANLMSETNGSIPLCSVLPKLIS

[5] = target: Dual specificity protein kinase CLK4 (Homo sapiens, UniProt Q9HAZ1); test: biochemical
[6] = target: T2, Dual specificity tyrosine-phosphorylation-regulated kinase 4 (Homo sapiens, UniProt Q9NR20); test: biochemical; assay type: cell-based, Sf9
T2 sequence (Q9NR20 whole entry): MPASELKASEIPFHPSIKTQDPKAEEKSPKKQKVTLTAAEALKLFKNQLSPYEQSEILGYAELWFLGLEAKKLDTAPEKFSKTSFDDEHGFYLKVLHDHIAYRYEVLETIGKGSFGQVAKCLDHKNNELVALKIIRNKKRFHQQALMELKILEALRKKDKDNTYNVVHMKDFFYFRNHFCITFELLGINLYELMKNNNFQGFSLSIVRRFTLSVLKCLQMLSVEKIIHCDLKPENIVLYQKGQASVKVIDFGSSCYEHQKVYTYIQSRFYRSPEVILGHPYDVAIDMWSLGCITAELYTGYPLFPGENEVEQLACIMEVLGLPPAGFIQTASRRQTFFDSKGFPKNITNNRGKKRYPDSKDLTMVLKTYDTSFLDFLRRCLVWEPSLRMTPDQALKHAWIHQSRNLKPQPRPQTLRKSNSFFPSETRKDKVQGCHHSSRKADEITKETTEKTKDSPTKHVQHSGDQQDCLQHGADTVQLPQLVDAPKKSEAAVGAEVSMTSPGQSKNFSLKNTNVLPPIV

[7] = target: T3, Glycogen synthase kinase-3 beta (Homo sapiens, UniProt P49841); test: biochemical; assay type: cell-based, Sf9
[8] = target: T4, Dual specificity protein kinase CLK1 (Homo sapiens, UniProt P49759); test: biochemical; assay type: cell-based, Sf9
[9] = target: Dual specificity protein kinase CLK3 (Homo sapiens, UniProt P49761); test: biochemical; assay type: cell-based, Sf9
[10] = target: T5, Dual specificity tyrosine-phosphorylation-regulated kinase 2 (Homo sapiens, UniProt Q92630); test: biochemical; assay type: cell-based, Sf9
T5 sequence (Q92630 whole entry): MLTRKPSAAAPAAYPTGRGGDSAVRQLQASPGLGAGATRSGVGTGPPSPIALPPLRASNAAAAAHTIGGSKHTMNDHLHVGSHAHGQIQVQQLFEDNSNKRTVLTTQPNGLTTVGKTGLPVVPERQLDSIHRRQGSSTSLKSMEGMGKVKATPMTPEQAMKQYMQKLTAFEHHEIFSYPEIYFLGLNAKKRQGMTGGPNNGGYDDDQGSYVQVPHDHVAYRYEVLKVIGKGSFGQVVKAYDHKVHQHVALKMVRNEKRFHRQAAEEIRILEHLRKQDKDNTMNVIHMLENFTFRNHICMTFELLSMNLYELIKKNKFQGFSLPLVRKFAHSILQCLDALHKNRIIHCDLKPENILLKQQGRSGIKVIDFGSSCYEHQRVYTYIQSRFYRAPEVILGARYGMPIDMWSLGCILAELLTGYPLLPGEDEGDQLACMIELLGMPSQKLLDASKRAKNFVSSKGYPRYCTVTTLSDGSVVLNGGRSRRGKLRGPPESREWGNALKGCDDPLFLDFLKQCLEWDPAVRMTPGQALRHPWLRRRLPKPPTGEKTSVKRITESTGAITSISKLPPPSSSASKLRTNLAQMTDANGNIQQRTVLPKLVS

[11] = target: Dual specificity protein kinase CLK2 (Homo sapiens, UniProt P49760); test: biochemical
[12] = target: T3, Glycogen synthase kinase-3 beta
[13] = target: T4, Dual specificity protein kinase CLK1; test: biochemical; assay type: cell-based, Sf9; conditions: read-out: IC50
[14] = target: T4, Dual specificity protein kinase CLK1

Chain of Dual specificity protein kinase CLK2 (P49760 whole entry): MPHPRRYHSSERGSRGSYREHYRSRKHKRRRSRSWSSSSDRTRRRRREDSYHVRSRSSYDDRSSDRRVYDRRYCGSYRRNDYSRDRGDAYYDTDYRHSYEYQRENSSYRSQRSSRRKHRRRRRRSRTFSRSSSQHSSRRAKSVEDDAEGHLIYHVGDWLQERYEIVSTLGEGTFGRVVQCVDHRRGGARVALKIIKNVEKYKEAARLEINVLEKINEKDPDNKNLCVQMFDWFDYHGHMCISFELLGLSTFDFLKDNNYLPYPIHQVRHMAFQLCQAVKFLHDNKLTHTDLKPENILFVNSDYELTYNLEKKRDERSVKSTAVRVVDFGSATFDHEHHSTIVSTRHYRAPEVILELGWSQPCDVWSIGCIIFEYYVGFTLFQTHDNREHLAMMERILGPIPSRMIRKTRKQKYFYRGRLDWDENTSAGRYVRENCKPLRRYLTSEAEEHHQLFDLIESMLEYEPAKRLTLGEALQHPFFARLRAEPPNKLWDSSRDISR
Chain of Dual specificity protein kinase CLK4 (Q9HAZ1 whole entry): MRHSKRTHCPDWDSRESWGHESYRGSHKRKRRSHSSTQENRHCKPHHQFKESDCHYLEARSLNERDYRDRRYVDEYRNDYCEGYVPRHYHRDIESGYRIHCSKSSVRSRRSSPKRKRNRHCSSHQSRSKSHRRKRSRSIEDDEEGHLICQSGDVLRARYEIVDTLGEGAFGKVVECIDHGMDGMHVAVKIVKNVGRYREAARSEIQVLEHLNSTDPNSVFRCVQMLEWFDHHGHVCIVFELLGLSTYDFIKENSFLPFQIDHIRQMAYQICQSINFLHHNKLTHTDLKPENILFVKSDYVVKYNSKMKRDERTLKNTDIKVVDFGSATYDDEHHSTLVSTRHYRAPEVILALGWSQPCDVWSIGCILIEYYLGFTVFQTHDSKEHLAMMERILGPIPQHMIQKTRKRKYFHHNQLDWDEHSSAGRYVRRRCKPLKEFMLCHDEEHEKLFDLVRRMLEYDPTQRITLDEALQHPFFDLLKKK
Chain of Dual specificity protein kinase CLK3 (P49761 whole entry): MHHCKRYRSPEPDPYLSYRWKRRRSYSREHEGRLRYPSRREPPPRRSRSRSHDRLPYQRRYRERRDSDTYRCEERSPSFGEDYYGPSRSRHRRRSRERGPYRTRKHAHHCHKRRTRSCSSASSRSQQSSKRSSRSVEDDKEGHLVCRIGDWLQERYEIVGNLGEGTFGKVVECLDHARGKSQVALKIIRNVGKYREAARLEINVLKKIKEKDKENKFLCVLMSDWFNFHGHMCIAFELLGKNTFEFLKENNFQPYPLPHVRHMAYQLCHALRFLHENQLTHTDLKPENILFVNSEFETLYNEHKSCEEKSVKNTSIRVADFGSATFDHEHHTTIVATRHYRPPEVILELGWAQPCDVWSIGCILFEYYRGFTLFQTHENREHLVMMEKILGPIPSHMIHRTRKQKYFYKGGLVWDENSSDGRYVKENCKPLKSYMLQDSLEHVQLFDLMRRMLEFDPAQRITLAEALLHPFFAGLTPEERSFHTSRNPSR
Chain of Cyclin-dependent kinase 5/CDK5 activator 1 (Q00535 whole entry): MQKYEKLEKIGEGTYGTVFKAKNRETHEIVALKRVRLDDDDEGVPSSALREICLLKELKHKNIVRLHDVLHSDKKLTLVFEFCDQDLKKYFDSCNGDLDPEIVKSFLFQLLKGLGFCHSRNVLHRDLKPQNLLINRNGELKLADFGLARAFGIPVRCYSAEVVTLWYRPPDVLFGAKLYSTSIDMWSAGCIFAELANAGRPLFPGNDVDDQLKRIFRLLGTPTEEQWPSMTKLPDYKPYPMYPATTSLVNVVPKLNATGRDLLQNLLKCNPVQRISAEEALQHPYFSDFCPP
Chain of Cyclin-dependent kinase 5/CDK5 activator 1 (Q15078 whole entry, further chain): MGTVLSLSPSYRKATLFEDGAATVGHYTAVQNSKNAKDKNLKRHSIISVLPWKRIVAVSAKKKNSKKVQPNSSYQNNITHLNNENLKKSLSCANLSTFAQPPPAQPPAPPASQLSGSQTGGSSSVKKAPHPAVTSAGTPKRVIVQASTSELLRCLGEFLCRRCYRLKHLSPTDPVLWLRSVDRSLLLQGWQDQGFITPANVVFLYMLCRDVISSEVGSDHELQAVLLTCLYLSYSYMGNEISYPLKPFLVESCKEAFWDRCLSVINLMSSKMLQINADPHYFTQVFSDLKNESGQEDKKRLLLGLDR
Chain of Casein kinase I isoform epsilon (P49674 whole entry, canonical isoform): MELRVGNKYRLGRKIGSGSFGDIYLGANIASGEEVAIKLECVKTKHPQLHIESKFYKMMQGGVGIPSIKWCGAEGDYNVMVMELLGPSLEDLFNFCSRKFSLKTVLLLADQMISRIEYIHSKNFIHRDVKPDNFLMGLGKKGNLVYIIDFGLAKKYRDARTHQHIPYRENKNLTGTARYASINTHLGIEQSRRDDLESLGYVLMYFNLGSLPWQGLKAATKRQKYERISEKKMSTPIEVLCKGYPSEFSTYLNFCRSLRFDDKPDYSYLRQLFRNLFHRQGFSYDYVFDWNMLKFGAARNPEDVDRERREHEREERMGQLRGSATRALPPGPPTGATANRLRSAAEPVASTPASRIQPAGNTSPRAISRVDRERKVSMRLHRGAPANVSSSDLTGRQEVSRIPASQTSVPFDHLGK
T3 sequence (P49841 whole entry): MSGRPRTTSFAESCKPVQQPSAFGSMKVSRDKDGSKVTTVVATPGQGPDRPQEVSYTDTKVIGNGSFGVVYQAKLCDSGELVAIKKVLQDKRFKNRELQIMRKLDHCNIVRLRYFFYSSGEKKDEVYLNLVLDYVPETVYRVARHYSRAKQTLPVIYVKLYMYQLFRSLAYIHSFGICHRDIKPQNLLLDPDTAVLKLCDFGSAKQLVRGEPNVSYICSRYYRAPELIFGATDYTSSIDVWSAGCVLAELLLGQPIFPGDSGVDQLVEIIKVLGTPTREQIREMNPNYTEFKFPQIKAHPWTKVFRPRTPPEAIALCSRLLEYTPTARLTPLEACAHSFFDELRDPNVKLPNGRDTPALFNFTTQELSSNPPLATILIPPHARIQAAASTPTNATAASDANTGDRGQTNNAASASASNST
T4 sequence (P49759 whole entry): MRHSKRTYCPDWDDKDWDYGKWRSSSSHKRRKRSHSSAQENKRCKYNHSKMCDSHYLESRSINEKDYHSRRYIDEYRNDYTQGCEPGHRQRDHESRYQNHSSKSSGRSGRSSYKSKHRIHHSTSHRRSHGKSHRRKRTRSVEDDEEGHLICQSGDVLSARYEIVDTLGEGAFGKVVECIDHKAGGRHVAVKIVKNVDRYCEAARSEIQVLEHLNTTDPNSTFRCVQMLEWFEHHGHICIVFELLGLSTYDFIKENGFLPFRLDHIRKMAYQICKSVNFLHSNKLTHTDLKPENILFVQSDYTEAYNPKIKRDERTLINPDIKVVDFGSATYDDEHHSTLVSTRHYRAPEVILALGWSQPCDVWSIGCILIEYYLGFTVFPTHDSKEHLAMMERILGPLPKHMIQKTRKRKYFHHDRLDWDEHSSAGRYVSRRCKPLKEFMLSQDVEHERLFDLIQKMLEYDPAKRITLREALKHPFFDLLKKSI

Row | IC50 [1] | IC50 [2] | IC50 at 48 h [3] | IC50 [4] | IC50 [5] | IC50 [6] | IC50 [7] | IC50 [8] | IC50 [9] | IC50 [10] | IC50 [11] | Kd [12] | IC50 [13] | Kd [14] | SMILES
1 | > 10000 nM | > 10000 nM | > 100000 nM | > 10000 nM | – | – | – | – | – | – | – | – | – | – | COc1ccc(-n2c(C)c([N+](=O)[O-])c3ccc(O)cc32)cc1
2 | > 10000 nM | > 10000 nM | 100000 nM | > 10000 nM | 340 nM | > 10000 nM | > 10000 nM | 572 nM | > 10000 nM | 1460 nM | 4410 nM | – | 385 nM | – | COc1ccc2sc(-c3cncc(NC(C)=O)c3)nc2c1
3 | > 10000 nM | > 10000 nM | 100000 nM | > 10000 nM | – | > 10000 nM | > 10000 nM | – | – | – | – | > 10000 nM | – | – | Cc1ccc(-n2cc(COc3cccc4cnc(Nc5cccc(Cl)c5)nc34)nn2)c([N+](=O)[O-])c1
4 | 3010 nM | 3960 nM | 180 nM | – | 4.3 nM | – | – | 7.1 nM | – | – | – | – | 9.1 nM | 0.018 nM | CN1CCN(c2cc(C(=O)Nc3cc4cc(-c5cnn(C)c5)ccc4cn3)ccn2)CC1
5 | > 10000 nM | – | 57000 nM | 8030 nM | > 10000 nM | > 10000 nM | – | > 10000 nM | > 10000 nM | > 10000 nM | > 10000 nM | – | – | – | CNCc1ccc(-c2[nH]c3cc(F)cc4c3c2CCNC4=O)cc1 [RUCAPARIB]
6 | > 10000 nM | 243 nM | 6300 nM | – | – | 117 nM | 4160 nM | – | 812 nM | – | – | 1760 nM | – | – | O=C1NC(NC23CC4CC(CC(C4)C2)C3)=N/C1=C\c1ccc2ncsc2c1
7 | > 10000 nM | – | > 100000 nM | – | 21.5 nM | 817 nM | > 10000 nM | – | 2170 nM | – | – | 561 nM | – | – | O=C1NC(Nc2ccccc2)=N/C1=C\c1ccc2c(c1)OCO2
8 | 8360 nM | – | 54000 nM | 4240 nM | – | > 10000 nM | – | 76.1 nM | 1910 nM | 4730 nM | 82.8 nM | – | 56.2 nM | 10.2 nM | c1ccc(CNc2nc(Nc3cc(C4CC4)[nH]n3)c3sccc3n2)cc1
9 | > 10000 nM | > 10000 nM | 21300 nM | 30.8 nM | 2.6 nM | 1520 nM | – | – | 77.4 nM | 99.2 nM | – | – | – | – | O=C(O)c1ccc2c(c1)nc(Nc1cccc(Cl)c1)c1ccncc12 [SILMITASERTIB]
10 | > 10000 nM | > 10000 nM | > 100000 nM | 5450 nM | 123 nM | > 10000 nM | – | 89.6 nM | > 10000 nM | 439 nM | 82 nM | – | 507 nM | 200 nM | O=C(Nc1ccc2[nH]ncc2c1)c1csc(Nc2ccccc2)n1

The next lines start with the molecule.

Row | SMILES | IC50 [1] | IC50 [2] | IC50 at 48 h [3] | IC50 [4] | IC50 [5] | IC50 [6] | IC50 [7] | IC50 [8] | IC50 [9] | IC50 [10] | IC50 [11] | Kd [12] | IC50 [13] | Kd [14]
11 | COc1ccc(/C=C2\SC(=S)NC2=O)cc1C#C[Si](C)(C)C | > 10000 nM | > 10000 nM | 64800 nM | > 10000 nM | > 10000 nM | > 10000 nM | > 10000 nM | 8310 nM | 7230 nM | > 10000 nM | 8410 nM | – | – | –
12 | COc1ccc2c(c1)[nH]c1c(C)nccc12 [HARMINE] | – | – | 56500 nM | 2860 nM | 102 nM | 8360 nM | – | – | 8810 nM | 3170 nM | 1150 nM | – | – | –
13 | COc1ccc2nc3ccc(OC)cc3c(SCCCN)c2c1 | > 10000 nM | > 10000 nM | 14500 nM | – | 452 nM | 584 nM | > 10000 nM | – | 7390 nM | – | 2670 nM | 2710 nM | – | –
14 | Cc1nc2ccc(-c3cc(N)nc(N)c3)nc2n1CC(F)(F)F | 1770 nM | 414 nM | 7700 nM | > 10000 nM | 16.2 nM | 426 nM | – | – | 1110 nM | 8.8 nM | 24.7 nM | – | – | –
15 | Cn1cc(-c2ccc3cnc(NC(=O)C4CCN(S(C)(=O)=O)CC4)cc3c2)cn1 | > 10000 nM | 1790 nM | 5900 nM | 209 nM | 14.1 nM | 612 nM | – | 37.7 nM | 681 nM | 37.2 nM | 89.6 nM | – | 20.6 nM | 0.62 nM
16 | [H]/N=C(\N/C(=N/[H])NCCCCCCNC(=N)NC(=N)Nc1ccc(Cl)cc1)Nc1ccc(Cl)cc1 [CHLORHEXIDINE] | – | – | 5600 nM | – | – | – | – | – | – | – | 9160 nM | – | – | –
17 | COc1ccc2nc3c(CO)cc(OC)cc3c(SC[C@H]3CCNC3)c2c1 | > 10000 nM | > 10000 nM | 14700 nM | – | 537 nM | 1930 nM | > 10000 nM | 1250 nM | 6500 nM | – | 4290 nM | – | – | –
18 | CCN1CCN(Cc2ccc(Nc3ncc(F)c(-c4cc(F)c5nc(C)n(C(C)C)c5c4)n3)nc2)CC1 [ABEMACICLIB] | > 10000 nM | – | 12200 nM | 20.6 nM | 89.9 nM | 3560 nM | – | 64.7 nM | 7480 nM | – | 185 nM | – | 81.4 nM | 0.851 nM
19 | CC(C)CN1CCC(C(=O)Nc2cc3cc(-c4cnn(C)c4)ccc3cn2)CC1 | > 10000 nM | 1030 nM | 4900 nM | 683 nM | 23.8 nM | 2480 nM | – | 84 nM | 2120 nM | 215 nM | 380 nM | – | 15 nM | 0.968 nM
20 | c1cc(OCCN2CCCCC2)cc(-c2n[nH]c3ccc(-c4nc[nH]n4)cc23)c1 [CC-401] | 1510 nM | > 10000 nM | 51700 nM | 4310 nM | 154 nM | > 10000 nM | – | 441 nM | > 10000 nM | 7920 nM | 405 nM | – | 2850 nM | 5.97 nM
21 | CC(C)Oc1ccc(F)c(-c2cnc(N)c(C(=O)Nc3cnccc3N3CCC[C@@H](C(=O)O)C3)n2)c1 | 630 nM | 470 nM | 16300 nM | 5600 nM | 21.1 nM | 7330 nM | – | 13.7 nM | 2480 nM | 1580 nM | 5.9 nM | – | 28.3 nM | 0.254 nM
